Legend:
[1] = tested on: Pseudomonas aeruginosa PA01
[2] = tested on: Acinetobacter baumannii 983709
[3] = tested on: 48 hour established Pseudomonas aeruginosa biofilms
[4] = tested on: Staphylococcus aureus UAMS-1
[5] = tested on: 24 hour established A. baumannii biofilms
P. aeruginosa [6] = conditions: P. aeruginosa wound; 2% agent in PEG (combination 1%+1%), twice a day for three days
Procedure: (§1) Treatments were twice a day for a total of three days, at which point the wound bacterial burden was measured.

S. aureus [7] = conditions: 2% agent (combination 1% silver sulfadiazine and 1% zinc pyrithione), 3 day
Procedure: as §1

[8] = tested on: Enterobacter cloacae Clinical Isolate
[9] = tested on: Klebsiella pneumoniae CKP4
[10] = tested on: Enterococcus faecalis V583
S. aureus [11] = tested on: S. aureus
Source text: (§2) Dose response measures of the antimicrobial activity of various concentrations (0 to 8% active agent) were used to define the optimal concentration of each agent alone and in combination.

P. aeruginosa [12] = tested on: P. aeruginosa
Source text: as §2

[13] = tested on: Enterococcus faecium 824-05
[14] = 0 to 8% active agent (ZnPt ˜0.015 to 0.25%; combination 0.015% to 4%)

zinc pyrithione [ZnPt]
minimum inhibitory concentration (Escherichia coli 8307; Escherichia coli): 1 µg/mL
MIC (Escherichia coli 8307; Escherichia coli 8307): 1 µg/mL
MIC ([1]; Pseudomonas aeruginosa PA01): 16 µg/mL
minimum inhibitory concentration ([1]; planktonic P. aeruginosa): 16 µg/mL
minimum inhibitory concentration ([2]; Acinetobacter baumannii): 2 µg/mL
MIC ([2]; Acinetobacter baumannii 983709): 2 µg/mL
reduction in biofilm associated Pseudomonas aeruginosa ([3]; 50 μM (15.8 μg ml^−1), 48 hour biofilm): 1 log
antibiofilm activity toward P. aeruginosa ([3]; low concentrations (4 to 64 μg ml^−1)): comparable to that of silver sulfadiazine
minimum inhibitory concentration ([4]; Staphylococcus aureus): 2 µg/mL
MIC ([4]; Staphylococcus aureus UAMS-1): 2 µg/mL
antibiofilm activity toward A. baumannii biofilms ([5]; comparison of agents alone and in combination): improved activity
reduction in biofilm associated A. baumannii ([5]; highest concentration tested (128 μg ml^−1; combination 64 μg ml^−1 of each agent)): 3.5 log
decrease in bacterial burden (P. aeruginosa [6]): 1.2 log
animals completed cleared of S. aureus (S. aureus [7]): 6 of 10
dose response of antimicrobial activity in PEG ointment (A. baumannii; [14]): dose-dependent increase in antimicrobial activity
antimicrobial activity in PEG-formulation (A. baumannii; 1% agent or 1% combination (0.5% each)): exhibited antimicrobial activity
minimum inhibitory concentration ([8]; Enterbacter cloacae): 4 µg/mL
MIC ([8]; Enterobacter cloacae Clinical Isolate): 4 µg/mL
minimum inhibitory concentration ([9]; Klebsiella pneumoniae): 2 µg/mL
MIC ([9]; Klebsiella pneumoniae CKP4): 2 µg/mL
MIC [10]: 2 µg/mL
antimicrobial activity in PEG-formulation (S. aureus [11]): exhibited antimicrobial activity
dose response of antimicrobial activity in PEG ointment (S. aureus [11]; [14]): dose-dependent increase in antimicrobial activity
dose response of antimicrobial activity in PEG ointment (P. aeruginosa [12]; P. aeruginosa, 0 to 8% active agent (ZnPt ˜0.015 to 0.25%; combination 0.015% to 4%)): dose-dependent increase in antimicrobial activity
antimicrobial activity in PEG-formulation (P. aeruginosa [12]; Pseudomonas aeruginosa): exhibited antimicrobial activity
minimum inhibitory concentration ([13]; Enterococcus faecium): 2 µg/mL
MIC ([13]; Enterococcus faecium 824-05): 2 µg/mL

Source: US11065274B2, “Prevention and treatment for microbial infections” (University of Rochester, priority 2015, dated 2021)
